Test results taken from patent US8653071B2, “α4β2 neuronal nicotinic acetylcholine receptor ligands” (Suven Life Sciences Limited, priority 2009, dated 2014).

Columns and labels:
Male Wister rats [1] = assay: Acute food intake study (animal model of hyperphagia); type: in vivo, rat; settings: oral
Experimental: The appetite suppressing properties of compounds of this invention were studied using an animal model of hyperphagia.
Male Wister rats (200-210 grams) obtained from Raj Biotech, India were used as experimental animals. The experiment consisted of 6 days. The rats were adapted to the 18 hour fasting and 6 hour feeding pattern. The animals were housed in a group of three in the cages provided with the fasting grills and were fasted for 18 hours. After 18 hour fasting the rats were separated and placed individually in a cage. Weighed amount of feed was provided to rats for 6 hour and the feed intake at 1, 2, 4 and 6 hours was recorded. Again the rats were regrouped and fasted for 18 hour. The above procedure was followed for 5 days. The average cumulative food intake by the rats on the last 3 days was calculated. Animals were randomised on the basis of their last three days food intake.
One group of 8 rats received vehicle (2 mL/Kg) orally and another set of animals received compound of the formula (I) orally. Then the rats were given access to food and the food intake at 1, 2, 4 and 6 hours was recorded. The food intake by the rats treated with test compound was compared with the vehicle treated group by using students‘t’ test.

in vivo = settings: male, Wistar, rat, po, 15 mg/kg
Experimental: Rodent Brain Penetration Study
Three animals were housed in each cage. Animals were given water and food ad libitum throughout the experiment, and maintained on a 12 hours light/dark cycle.
NCE compound was dissolved in water and administered orally. At Tmax (0.5, 1.0 and 2.0) animals were sacrificed to collect the plasma and brain tissue and were homogenized. Plasma and Brain was stored frozen at −20° C. until analysis. The concentrations of the NCE compound in plasma and Brain were determined using LC-MS/MS method.
The NCE compounds were quantified in plasma and brain homogenate by validated LC-MS/MS method using solid phase extraction technique. NCE compounds were quantified in the calibration range of 1-500 ng/mL in plasma and brain homogenate. Study samples were analyzed using calibration samples in the batch and quality control samples spread across the batch. Extents of brain-blood ratio were calculated (Cb/Cp).

Male Wister rats [2] = assay: Object recognition task model; type: in vivo, rat; settings: 1 mg/kg, p.o.
Experimental: Object Recognition Task Model
The cognition-enhancing properties of compounds of this invention were estimated using a model of animal cognition: the object recognition task model.
Male Wister rats (230-280 grams) obtained from N. I. N. (National Institute of Nutrition, Hyderabad, India) was used as experimental animals. Four animals were housed in each cage. […] Also the rats were habituated to individual arenas for 1 hour in the absence of any objects.
One group of 12 rats received vehicle (1 mL/Kg) orally and another set of animals received compound of the formula (I) either orally or i.p., before one hour of the familiar (T1) and choice trial (T2).
The experiment was carried out in a 50×50×50 cm open field made up of acrylic. In the familiarization phase, (T1), the rats were placed individually in the open field for 3 minutes, in which two identical objects (plastic bottles, 12.5 cm height×5.5 cm diameter) covered in yellow masking tape alone (a1 and a2) were positioned in two adjacent corners, 10 cm. from the walls. After 24 hours of the (T1) trial for long-term memory test, the same rats were placed in the same arena as they were placed in T1 trial. Choice phase (T2) rats were allowed to explore the open field for 3 minutes in presence of one familiar object (a3) and one novel object (b) (Amber color glass bottle, 12 cm high and 5 cm in diameter). Familiar objects presented similar textures, colors and sizes. During the T1 and T2 trial, explorations of each object (defined as sniffing, licking, chewing or having moving vibrissae whilst directing the nose towards the object at a distance of less than 1 cm) were recorded separately by stopwatch. Sitting on an object was not regarded as exploratory activity, however, it was rarely observed.
T1 is the total time spent exploring the familiar objects (a1+a2).
T2 is the total time spent exploring the familiar object and novel object (a3+b).
The object recognition test was performed as described by Ennaceur, A., Delacour, J., 1988, A new one-trial test for neurobiological studies of memory in rats—Behavioural data, Behav. Brain Res., 31, 47-59.

[3] = molecular target: Nicotinic Acetylcholine α4β2 Receptor (UniProt P09483+P12390); assay: Binding assay for human or rat nicotinic acetylcholine α4β2 receptor ([3H]Cytisine displacement); settings: [3H]Cytisine 2.5 nM; rat brain frontal cortex or recombinant human receptor in CHO cells (not specified which); read-out: Ki
[4] = Rodent pharmacokinetic study; type: in vivo; settings: Wistar, in vivo, Wister rat/Male
Experimental: Rodent Pharmacokinetic Study
Three to five animals were housed in each cage. Animals were kept fasted over night and maintained on a 12 hours light/dark cycle. Three rats were dosed NCE orally (15 or 5 mg/kg) and intravenously (5 mg/kg) on day 0 and day 2
At each time point blood was collected by jugular vein. Plasma was stored frozen at −20° C. until analysis. The concentrations of the NCE compound in plasma were determined using LC-MS/MS method. Schedule time points: Pre dose 0.25, 0.5, 1, 1.5, 2, 3, 4, 6, 8, 10, 12 and 24 hours after dosing (n=3).
Pharmacokinetic parameters Cmax, Tmax, AUCt, T1/2 and Bioavailability were calculated by non-compartmental model using software WinNonlin version 5.0.1.

Male Wister rats [5] = assay: Reversal of formalin induced nociception; type: in vivo; settings: p.o.; rat
Experimental: Reversal of Formalin Induced Nociception
The anti-nociceptive properties of compounds of this invention were evaluated using a model of pain: the Formalin Induced Nociception model. Male Wister rats (230-280 grams) obtained from N. I. N. (National Institute of Nutrition, Hyderabad, India) was used as experimental animals.
Rats were habituated for 20 minutes in the arena before the experiment was started. Duration of licks, bites and flinches were noted from 0-10 minutes and 20-35 minutes after administration of formalin, subplantar into the right hind paw at concentrations of 5% v/v. 50 μL of water for injection was injected into the right hind paw of the rats of the sham group. Compounds of this invention were administered orally prior to formalin administration.

Compound: CNCC1CC2CC2N1c1cccnc1.Cl (centres unmarked) [Example 4, N-[2-(Pyridin-3-yl)-2-azabicyclo[3.1.0]hex-3-ylmethyl]methylamine hydrochloride]
- Inference (Male Wister rats [1]): Active
- % Suppression of food intake compared to vehicle, 1 Hour (Male Wister rats [1]; 1 Hour, 18 hour fasted rats): 38.45%
- % Suppression of food intake compared to vehicle, 2 Hour (Male Wister rats [1]; 2 Hour, 18 hour fasted rats): 30.23%
- % Suppression of food intake compared to vehicle, 4 Hour (Male Wister rats [1]; 4 Hour, 18 hour fasted rats): 25.60%
- % Suppression of food intake compared to vehicle, 6 Hour (Male Wister rats [1]; 6 Hour, 18 hour fasted rats): 18.63%
- Kp (in vivo): 11.7 ± 2.66
- Inference (Male Wister rats [2]): Active
- Exploration time mean ± S.E.M, Familiar object (Male Wister rats [2]; choice trial): 7.64 ± 1.052 s
- Exploration time mean ± S.E.M, Novel object (Male Wister rats [2]; choice trial): 14.21 ± 2.364 s
- Ki [3]: 59.4 nM
- AUC(0-t) ([4]; 5 mg/kg, Intravenous): 1670 ± 154 ng·h/mL
- Cmax ([4]; 5 mg/kg, Intravenous): 956 ± 164 ng/mL
- Tmax ([4]; 5 mg/kg, Intravenous): 0.08 h
- half-life ([4]; 5 mg/kg, Intravenous): 5.82 ± 0.53 h
- bioavailability ([4]; 15 mg/kg Per-Oral vs 5 mg/kg Intravenous): 105 ± 9%
- AUC(0-t) ([4]; 15 mg/kg, Per-Oral): 5280 ± 652 ng·h/mL
- Cmax ([4]; 15 mg/kg, Per-Oral): 1560 ± 294 ng/mL
- Tmax ([4]; 15 mg/kg, Per-Oral): 0.33 ± 0.14 h
- half-life ([4]; 15 mg/kg, Per-Oral): 4.48 ± 0.76 h
- Dose (reversal of formalin induced nociception) (Male Wister rats [5]): ≦10 mg/kg, p.o.
